Results published in PubChem BioAssay AID248 (DTP/NCI, 2004).
Several values for one entry are separate records, joined by “and”; a condition that tells them apart may be missing. Equal entries are not always repeated. Toxic doses and inconclusive results are not listed. No stated cut-off is given here; in the data, active means T/C of 150% or more; inactive means T/C below 125%.

Tested on: L1210 leukemia ip in BDF1 mice, survival T/C
Assay: NCI In Vivo Anticancer Drug Screen. Data for tumor model L1210 Leukemia (intraperitoneal) in B6D2F1 (BDF1) mice
Details: endpoint: mean survival time, higher = longer survival
Summary of the method: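 Tumor was transplanted into mice, which were then dosed with test compound or vehicle alone. Survival was recorded for each group, and the treated figure was expressed relative to the control figure.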

[1] = dose: 100.0 mg/kg/injection, schedule: Q01DX009 (ip), vehicle: Klucel (hydroxypropylcellulose) (HPC)
[2] = dose: 100.0 mg/kg/injection, schedule: Q04DX003 (ip), vehicle: Klucel (hydroxypropylcellulose) (HPC)
[3] = dose: 200.0 mg/kg/injection, schedule: Q01DX009 (ip), vehicle: Klucel (hydroxypropylcellulose) (HPC)
[4] = dose: 200.0 mg/kg/injection, schedule: Q04DX003 (ip), vehicle: Klucel (hydroxypropylcellulose) (HPC)
[5] = dose: 400.0 mg/kg/injection, schedule: Q04DX003 (ip), vehicle: Klucel (hydroxypropylcellulose) (HPC)
[6] = dose: 100.0 mg/kg/injection, schedule: Q01DX001 (ip), vehicle: Klucel (hydroxypropylcellulose) (HPC)
[7] = dose: 200.0 mg/kg/injection, schedule: Q01DX001 (ip), vehicle: Klucel (hydroxypropylcellulose) (HPC)
[8] = dose: 400.0 mg/kg/injection, schedule: Q01DX001 (ip), vehicle: Klucel (hydroxypropylcellulose) (HPC)
[9] = dose: 100.0 mg/kg/injection, schedule: Q01DX001 (ip), vehicle: carboxymethylcellulose (CMC)
[10] = dose: 200.0 mg/kg/injection, schedule: Q01DX001 (ip), vehicle: carboxymethylcellulose (CMC)
[11] = dose: 400.0 mg/kg/injection, schedule: Q01DX001 (ip), vehicle: carboxymethylcellulose (CMC)
[12] = dose: 100.0 mg/kg/injection, schedule: Q04DX003 (ip), vehicle: saline with Tween-80
[13] = dose: 200.0 mg/kg/injection, schedule: Q04DX003 (ip), vehicle: saline with Tween-80
[14] = dose: 100.0 mg/kg/injection, schedule: Q04DX002 (ip), vehicle: Klucel (hydroxypropylcellulose) (HPC)
[15] = dose: 200.0 mg/kg/injection, schedule: Q04DX002 (ip), vehicle: Klucel (hydroxypropylcellulose) (HPC)
[16] = dose: 400.0 mg/kg/injection, schedule: Q04DX002 (ip), vehicle: Klucel (hydroxypropylcellulose) (HPC)
[17] = dose: 100.0 mg/kg/injection, schedule: Q01DX009 (ip), vehicle: saline with Tween-80
[18] = dose: 200.0 mg/kg/injection, schedule: Q01DX009 (ip), vehicle: saline with Tween-80
[19] = dose: 400.0 mg/kg/injection, schedule: Q01DX009 (ip), vehicle: saline with Tween-80

Measured: T/C

Cn1c(=O)c2[nH]c(-c3cccs3)nc2n(C)c1=O
inactive: dose: 50.0 mg/kg/injection, schedule: Q01DX001 (ip), vehicle: other 101 % of control | dose: 100.0 mg/kg/injection, schedule: Q01DX001 (ip), vehicle: other 90 % of control | dose: 200.0 mg/kg/injection, schedule: Q01DX001 (ip), vehicle: other 97 % of control | dose: 400.0 mg/kg/injection, schedule: Q01DX001 (ip), vehicle: other 92 % of control

CS(=O)(=O)OC[C@@H]1C2C=CC(C2)[C@@H]1COS(C)(=O)=O
inactive: dose: 50.0 mg/kg/injection, schedule: Q01DX009 (ip), vehicle: Klucel (hydroxypropylcellulose) (HPC) 107 % of control | [1] 100 % of control | [2] 98 % of control | [3] 104 % of control | [4] 94 % of control | [5] 107 % of control

COc1cc([N+](=O)[O-])ccc1C(=O)NC(CCC(=O)O)C(=O)O (stereo unspecified)
inactive: [6] 95 % of control | [7] 106 % of control | [8] 100 % of control

Cc1cc(N(CCCl)CCCl)ccc1C=Nc1ccc(-c2csc(Cc3ccccc3)n2)cc1
inactive: dose: 50.0 mg/kg/injection, schedule: Q01DX001 (ip), vehicle: carboxymethylcellulose (CMC) 105 % of control | [9] 103 % of control | [10] 116 % of control | [11] 97 % of control

Cc1ccc(CNC(=O)NCCCCCCNC(=O)NCc2ccc(C)cc2)cc1
inactive: dose: 100.0 mg/kg/injection, schedule: Q01DX009 (ip), vehicle: other 95 % of control | dose: 200.0 mg/kg/injection, schedule: Q01DX009 (ip), vehicle: other 100 % of control | dose: 400.0 mg/kg/injection, schedule: Q01DX009 (ip), vehicle: other 100 % of control

CCCCCCCCOC(=O)Nc1ccc(S(=O)(=O)CC)cc1
inactive: [9] 91 % of control | [10] 89 % of control | [11] 89 % of control

CCOC(=O)c1cnc(SCc2ccccc2)nc1Nc1ccccc1Cl
inactive: [12] 94 % of control | [13] 88 % of control

CC(=O)CC(=O)NCCCN1CCCCC1
inactive: dose: 12.5 mg/kg/injection, schedule: Q01DX009 (ip), vehicle: saline with Tween-80 103 % of control | dose: 12.5 mg/kg/injection, schedule: Q04DX003 (ip), vehicle: saline with Tween-80 103 % of control | dose: 25.0 mg/kg/injection, schedule: Q01DX009 (ip), vehicle: saline with Tween-80 100 % of control | dose: 25.0 mg/kg/injection, schedule: Q04DX003 (ip), vehicle: saline with Tween-80 106 % of control | dose: 50.0 mg/kg/injection, schedule: Q04DX003 (ip), vehicle: saline with Tween-80 97 % of control and 103 % of control

CC(=O)Nc1ccc(C(=O)O)cc1[N+](=O)[O-]
inactive: [9] 99 % of control | dose: 100.0 mg/kg/injection, schedule: Q01DX009 (ip), vehicle: carboxymethylcellulose (CMC) 95 % of control and 105 % of control | [14] 95 % of control | dose: 100.0 mg/kg/injection, schedule: Q04DX002 (ip), vehicle: carboxymethylcellulose (CMC) 106 % of control and 90 % of control | dose: 100.0 mg/kg/injection, schedule: Q04DX003 (ip), vehicle: carboxymethylcellulose (CMC) 97 % of control | [10] 97 % of control | dose: 200.0 mg/kg/injection, schedule: Q01DX009 (ip), vehicle: carboxymethylcellulose (CMC) 98 % of control and 107 % of control | [15] 98 % of control | dose: 200.0 mg/kg/injection, schedule: Q04DX002 (ip), vehicle: carboxymethylcellulose (CMC) 93 % of control and 101 % of control | dose: 200.0 mg/kg/injection, schedule: Q04DX003 (ip), vehicle: carboxymethylcellulose (CMC) 105 % of control | dose: 400.0 mg/kg/injection, schedule: Q01DX009 (ip), vehicle: carboxymethylcellulose (CMC) 93 % of control and 91 % of control | [16] 98 % of control | dose: 400.0 mg/kg/injection, schedule: Q04DX002 (ip), vehicle: carboxymethylcellulose (CMC) 93 % of control and 90 % of control | dose: 400.0 mg/kg/injection, schedule: Q04DX003 (ip), vehicle: carboxymethylcellulose (CMC) 91 % of control

COc1ccc(C2OCC(C)([N+](=O)[O-])CO2)cc1 (stereo unspecified)
inactive: dose: 50.0 mg/kg/injection, schedule: Q01DX001 (ip), vehicle: Klucel (hydroxypropylcellulose) (HPC) 94 % of control | dose: 50.0 mg/kg/injection, schedule: Q04DX002 (ip), vehicle: Klucel (hydroxypropylcellulose) (HPC) 103 % of control | [6] 96 % of control | [14] 96 % of control and 102 % of control | [7] 98 % of control | [15] 96 % of control and 100 % of control | [8] 98 % of control | [16] 99 % of control and 121 % of control

CCCCNC(C)(C)CSS(=O)(=O)O
inactive: dose: 50.0 mg/kg/injection, schedule: Q01DX009 (ip), vehicle: saline with Tween-80 97 % of control | [17] 109 % of control | [12] 96 % of control | [18] 103 % of control | [13] 96 % of control | [19] 103 % of control | dose: 400.0 mg/kg/injection, schedule: Q04DX003 (ip), vehicle: saline with Tween-80 96 % of control

OCC(O)C(O)C(O)C(O)C1SCCS1 (stereo unspecified)
inactive: [1] 88 % of control | [2] 98 % of control and 103 % of control and 93 % of control | [3] 89 % of control | [4] 103 % of control and 93 % of control | dose: 400.0 mg/kg/injection, schedule: Q01DX009 (ip), vehicle: Klucel (hydroxypropylcellulose) (HPC) 100 % of control | [5] 115 % of control and 88 % of control

CC(C)OC(=S)SCC(=O)c1ccc([N+](=O)[O-])cc1
inactive: [14] 112 % of control | [15] 102 % of control | [16] 105 % of control

O=C(O)/C=C/c1cccc(Cl)c1
inactive: dose: 100.0 mg/kg/injection, schedule: Q01DX009 (ip), vehicle: gum acacia 113 % of control | dose: 200.0 mg/kg/injection, schedule: Q01DX009 (ip), vehicle: gum acacia 104 % of control | dose: 400.0 mg/kg/injection, schedule: Q01DX009 (ip), vehicle: gum acacia 100 % of control

O=C1CCCC(=O)c2ccccc21
inactive: [9] 98 % of control | [10] 93 % of control | [11] 102 % of control

Cc1ccccc1NC(=O)NO
inactive: [9] 103 % of control | [10] 100 % of control | [11] 105 % of control

CCCCNC(C)C1(O)Cc2c(O)c3c(c(O)c2C(OC2CC(N)C(O)C(C)O2)C1)C(=O)c1c(OC)cccc1C3=O (stereo unspecified)
inactive: dose: 5.0 mg/kg/injection, schedule: Q01DX009 (ip), vehicle: water 100 % of control | dose: 10.0 mg/kg/injection, schedule: Q01DX009 (ip), vehicle: water 100 % of control | dose: 20.0 mg/kg/injection, schedule: Q01DX009 (ip), vehicle: water 92 % of control | dose: 80.0 mg/kg/injection, schedule: Q01DX009 (ip), vehicle: water 104 % of control

Cc1ccccc1C(c1ccccc1)C(CC(=O)O)CC(=O)O (stereo unspecified)
inactive: [17] 96 % of control | dose: 100.0 mg/kg/injection, schedule: Q04DX003 (ip), vehicle: other 100 % of control | [18] 95 % of control | dose: 200.0 mg/kg/injection, schedule: Q04DX003 (ip), vehicle: other 103 % of control | [19] 93 % of control | dose: 400.0 mg/kg/injection, schedule: Q04DX003 (ip), vehicle: other 106 % of control

Cc1cccc(C)c1/C=C/S(=O)(=O)c1ccccc1
inactive: dose: 100.0 mg/kg/injection, schedule: Q01DX001 (ip), vehicle: acetone 98 % of control | dose: 100.0 mg/kg/injection, schedule: Q01DX009 (ip), vehicle: saline 94 % of control | dose: 100.0 mg/kg/injection, schedule: Q04DX003 (ip), vehicle: acetone 109 % of control | dose: 200.0 mg/kg/injection, schedule: Q01DX001 (ip), vehicle: acetone 98 % of control | dose: 200.0 mg/kg/injection, schedule: Q01DX009 (ip), vehicle: saline 103 % of control | dose: 200.0 mg/kg/injection, schedule: Q04DX003 (ip), vehicle: acetone 103 % of control | dose: 400.0 mg/kg/injection, schedule: Q01DX001 (ip), vehicle: acetone 106 % of control | dose: 400.0 mg/kg/injection, schedule: Q01DX009 (ip), vehicle: saline 94 % of control | dose: 400.0 mg/kg/injection, schedule: Q04DX003 (ip), vehicle: acetone 101 % of control
